Test results taken from patent US8802597B2, “Herbicidal pyrimidines” (E I du Pont de Nemours and Company, priority 2003, dated 2014).
Read-outs that look alike come from different tables or passages of the source.

Tests used:
Assay in all cases: Test C pre/postemergence
Type in all cases: in vivo
[1] = tested on: giant foxtail (Setaria faberii); conditions: Setaria faberi; for pest or weed control at 125 g/ha: 125 g ai/ha; for pest or weed control at 31 g/ha: 31 g ai/ha; for pest or weed control at 62 g/ha: 62 g ai/ha; for pest or weed control at 250 g/ha: 250 g ai/ha
How it was run: (§1)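 Injury scored visually 12–14 days after application on 0–100 scale (100 = complete control), relative to controls. Compounds, formulated with surfactant in non-phytotoxic solvent, applied to soil at planting (pre) or to 1- to 4-leaf plants 2–18 cm tall (post) in greenhouse.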

[2] = tested on: Surinam grass (Brachiaria decumbens); conditions: Urochloa decumbens; for pest or weed control at 125 g/ha: 125 g ai/ha; for pest or weed control at 62 g/ha: 62 g ai/ha
How it was run: as §1

[3] = tested on: common (oilseed) sunflower (Helianthus annuus); conditions: Helianthus annuus, pre-emergence, Preemergence, read-out: Plant response rating, Sunflower
How it was run: as §1

[4] = tested on: bermudagrass (Cynodon dactylon); conditions: Cynodon dactylon; for pest or weed control at 31 g/ha: 31 g ai/ha; for pest or weed control at 62 g/ha: 62 g ai/ha; for pest or weed control at 125 g/ha: 125 g ai/ha; for pest or weed control at 250 g/ha: 250 g ai/ha
How it was run: as §1

soybean (Glycine max) = conditions: Glycine max; for plant injury at 31 g/ha: 31 g ai/ha; for plant injury at 62 g/ha: 62 g ai/ha; for plant injury at 125 g/ha: 125 g ai/ha; for plant injury at 250 g/ha: 250 g ai/ha
How it was run: as §1

[5] = tested on: pigweed (Amaranthus retroflexus); conditions: Amaranthus retroflexus; for pest or weed control at 31 g/ha: 31 g ai/ha; for pest or weed control at 62 g/ha: 62 g ai/ha; for pest or weed control at 125 g/ha: 125 g ai/ha; for pest or weed control at 250 g/ha: 250 g ai/ha
How it was run: as §1

kochia (Kochia scoparia) = conditions: Bassia scoparia, post-emergence, Postemergence
How it was run: as §1

[6] = post-emergence, Postemergence, scale 0 to 100 (0 no effect, 100 complete control), read-out: Foxtail, Giant plant response rating
[7] = pre-emergence, Preemergence, scale 0 to 100, 0 no effect, 100 complete control, read-out: Plant response rating, Foxtail, Giant
[8] = pre-emergence, Preemergence, scale 0 to 100, read-out: Plant response rating, Foxtail, Giant
[9] = post-emergence, Postemergence, scale 0 to 100 (0 no effect, 100 complete control), read-out: Surinam Grass plant response rating
[10] = post-emergence, Postemergence, scale 0 to 100 (0 no effect, 100 complete control), read-out: Bermudagrass plant response rating
[11] = pre-emergence, Preemergence, scale 0 to 100, 0 no effect, 100 complete control, read-out: Plant response rating, Bermudagrass
[12] = pre-emergence, Preemergence, scale 0 to 100, read-out: Plant response rating, Bermudagrass
[13] = post-emergence, Postemergence, scale 0 to 100 (0 no effect, 100 complete control), read-out: Soybean plant response rating
[14] = pre-emergence, Preemergence, scale 0 to 100, 0 no effect, 100 complete control, read-out: Plant response rating, Soybean
[15] = pre-emergence, Preemergence, scale 0 to 100, read-out: Plant response rating, Soybean
[16] = post-emergence, Postemergence, scale 0 to 100 (0 no effect, 100 complete control), read-out: Pigweed plant response rating
[17] = pre-emergence, Preemergence, scale 0 to 100, 0 no effect, 100 complete control, read-out: Plant response rating, Pigweed
[18] = pre-emergence, Preemergence, scale 0 to 100, read-out: Plant response rating, Pigweed

Work on `CCOC(=O)c1nc(-c2ccc(Cl)cc2)nc(N)c1Cl` [Compound 64, ethyl 6-amino-5-chloro-2-(4-chlorophenyl)-4-pyrimidinecarboxylate] yielded a pest or weed control at 125 g/ha [1, 6] of 50%, a pest or weed control at 31 g/ha ([1]; post-emergence, Postemergence, read-out: Plant response rating (scale of 0 to 100), Foxtail, Giant) of 0% and a pest or weed control at 62 g/ha [1, 6] of 20%. It also gave a pest or weed control at 250 g/ha ([1]; post-emergence, Postemergence, scale 0 to 100, read-out: Plant response rating, Foxtail, Giant) of 50%, a pest or weed control at 31 g/ha [1, 7] of 0% and a pest or weed control at 62 g/ha [1, 7] of 0%. For the same molecule, the pest or weed control at 125 g/ha [1, 8] was 0%, the pest or weed control at 250 g/ha [1, 8] was 0% and the pest or weed control at 125 g/ha [2, 9] was 60%. The pest or weed control at 31 g/ha ([2]; post-emergence, Postemergence, 31 g ai/ha, read-out: Plant response rating (scale of 0 to 100), Surinam Grass) was 20%, the pest or weed control at 62 g/ha [2, 9] was 60% and the pest or weed control at 62 g/ha ([2]; pre-emergence, Preemergence, scale 0 to 100, 0 no effect, 100 complete control, read-out: Plant response rating, Surinam Grass) was 0%. For the same molecule, the pest or weed control at 125 g/ha ([2]; pre-emergence, Preemergence, scale 0 to 100, read-out: Plant response rating, Surinam Grass) was 50%, the pest or weed control at 250 g/ha ([2]; pre-emergence, Preemergence, 250 g ai/ha, scale 0 to 100, read-out: Plant response rating, Surinam Grass) was 90% and the pest or weed control at 31 g/ha ([3]; 31 g ai/ha, scale 0 to 100, 0 no effect, 100 complete control) was 0%. The pest or weed control at 62 g/ha ([3]; 62 g ai/ha, scale 0 to 100, 0 no effect, 100 complete control) was 0%, the pest or weed control at 125 g/ha ([3]; 125 g ai/ha, scale 0 to 100) was 30% and the pest or weed control at 250 g/ha ([3]; 250 g ai/ha, scale 0 to 100) was 85%. For the same molecule, the pest or weed control at 31 g/ha ([4]; post-emergence, Postemergence, read-out: Plant response rating (scale of 0 to 100), Bermudagrass) was 20%, the pest or weed control at 62 g/ha [4, 10] was 60% and the pest or weed control at 125 g/ha [4, 10] was 65%. For the same molecule, the pest or weed control at 250 g/ha ([4]; post-emergence, Postemergence, scale 0 to 100, read-out: Plant response rating, Bermudagrass) was 70%, the pest or weed control at 31 g/ha [4, 11] was 0% and the pest or weed control at 62 g/ha [4, 11] was 0%. It also gave a pest or weed control at 125 g/ha [4, 12] of 20%, a pest or weed control at 250 g/ha [4, 12] of 20% and a plant injury at 31 g/ha (soybean (Glycine max); post-emergence, Postemergence, read-out: Plant response rating (scale of 0 to 100), Soybean) of 90%. It also gave a plant injury at 62 g/ha (soybean (Glycine max); [13]) of 90%, a plant injury at 125 g/ha (soybean (Glycine max); [13]) of 100% and a plant injury at 250 g/ha (soybean (Glycine max); post-emergence, Postemergence, scale 0 to 100, read-out: Plant response rating, Soybean) of 100%. The plant injury at 31 g/ha (soybean (Glycine max); [14]) was 0%, the plant injury at 62 g/ha (soybean (Glycine max); [14]) was 85% and the plant injury at 125 g/ha (soybean (Glycine max); [15]) was 85%. The plant injury at 250 g/ha (soybean (Glycine max); [15]) was 85%, the pest or weed control at 31 g/ha ([5]; post-emergence, Postemergence, read-out: Plant response rating (scale of 0 to 100), Pigweed) was 85% and the pest or weed control at 62 g/ha [5, 16] was 95%. For the same molecule, the pest or weed control at 125 g/ha [5, 16] was 100%, the pest or weed control at 250 g/ha ([5]; post-emergence, Postemergence, scale 0 to 100, read-out: Plant response rating, Pigweed) was 100% and the pest or weed control at 31 g/ha [5, 17] was 10%. The pest or weed control at 62 g/ha [5, 17] was 30%, the pest or weed control at 125 g/ha [5, 18] was 100% and the pest or weed control at 250 g/ha [5, 18] was 100%. The pest or weed control at 31 g/ha (kochia (Kochia scoparia); 31 g ai/ha, read-out: Plant response rating (scale of 0 to 100), Kochia) was 80% and the pest or weed control at 62 g/ha (kochia (Kochia scoparia); 62 g ai/ha, scale 0 to 100 (0 no effect, 100 complete control), read-out: Kochia plant response rating) was 85%.
